Measured values: patent publication US20090311344A1, “Dosing Regimen” (priority 2008, published 2009)
Entries after “also recorded” stand apart in the source; their conditions may differ.

What was measured:
[1] = Single dose study in healthy subjects: safety, tolerability, antibodies; format: in vivo, human
Description: (§1) See, e.g., U.S. patent application Ser. No. 11/354,065, filed Feb. 14, 2006, the entire contents of which are incorporated herein by reference.
Single i.v. doses of the TPO mimetic peptide compound up to and including 3 μg/kg were well-tolerated in healthy male subjects, with no apparent drug-related effects on adverse events, or cardiovascular or laboratory safety parameters (excluding platelet counts). Antibodies against the TPO mimetic peptide compound were not apparent in any post dose samples.

[2] = system: chemotherapy-induced thrombocytopenia and anemia; test: murine models of chemotherapy-induced thrombocytopenia (CIT) and anemia; format: in vivo
Description: (§2) The TPO mimetic peptide compound has an estimated EC50 of approximately 5 pM (0.2 ng/mL) in a human TPO (huTPO) receptor assay in vitro and stimulates megakaryocyte lineage specific growth and differentiation in vivo.

[3] = system: platelets, reticulocytes, hematocrit; test: CBC analysis and reticulocyte counts in HT-29 tumor-bearing mice (Groups 6-9); format: in vivo, athymic nude mice
Description: Five groups (n=10) of female athymic nude mice (Harlan) bearing established (˜100 mm^3) HT-29 human colon carcinomas on Day 1. Groups 6-9 (n=20) were included for blood sampling and received the same treatment as Groups 1-4, respectively. Treatment effects on the growth of tumors were evaluated by tumor growth delay (TGD), which is the difference between median time to endpoint (TTE) tumor size in a treatment group compared to a control group. […]
(§3) Group 1 mice (n=10) were untreated tumor growth controls. Group 2 mice (n=10) received 60 mg/kg carboplatin administered intraperitoneally (i.p.) on Days 1, 2, 12, and 13. Group 3 mice (n=10) received 0.2 mg/kg of the TPO mimetic peptide compound administered intravenously (i.v.) via tail vein on Days 2 and 13. Groups 4 and 5 received the combination of carboplatin (60 mg/kg i.p. on Days 1, 2, 12, and 13) and 0.2 mg/kg of the TPO mimetic peptide compound on Days 2, 13 and Days 2, 13, 23, respectively, administered intravenously (i.v.) one hour after carboplatin dosing. Groups 6-9 (n=20 each) were included for blood sampling and received the same treatments as Groups 1-4, respectively. For all groups, each dose of drug was given in a volume of 0.2 mL per 20 g of body weight (10 mL/kg), and was scaled to the body weight of each animal.
[…] Blood was collected into EDTA tubes, and complete blood counts (CBC) with differential were determined using a Cell-Dyn® 3700 System (Abbott Diagnostics) for automated hematology analyses. Reticulocyte values were determined. In addition, for Groups 1-5, five animals per group were euthanized at or just after endpoint by terminal cardiac puncture under CO2 anesthesia, and gross necropsies were performed. Blood samples were collected into EDTA tubes, and CBC with differential and reticulocyte values were performed as previously described. All other animals in Groups 1-5 were euthanized at endpoint without sampling.

platelet count [4] = test: platelet count in the rat after a single i.v. dose; format: in vivo; conditions: single i.v. dose 30 to 300 μg/kg
Description: as §2

platelet count [5] = test: Single dose study in healthy subjects: platelets, megakaryocyte ploidy, progenitor cells; format: in vivo, human
Text: as §1

[6] = system: HT-29 human colon carcinoma xenografts; test: HT-29 human colon carcinoma xenografts in athymic nude mice: tumor growth delay; format: in vivo
Text: Administration of the TPO Mimetic Peptide Compound One Hour After Administration of Carboplatin. Effect on activity and toxicity of carboplatin against HT-29 human colon carcinoma xenografts established in athymic nude mice.
Five groups (n=10) of female athymic nude mice (Harlan) bearing established (˜100 mm^3) HT-29 human colon carcinomas on Day 1. Groups 6-9 (n=20) were included for blood sampling and received the same treatment as Groups 1-4, respectively. Treatment effects on the growth of tumors were evaluated by tumor growth delay (TGD), which is the difference between median time to endpoint (TTE) tumor size in a treatment group compared to a control group. The effect of these treatments on platelet and erythrocyte precursors was determined from CBC analysis and reticulocyte counts of blood samples taken on Days 10, 13, 21 and 24.
Xenografts were initiated from HT-29 human colon carcinoma xenografts maintained in athymic nude mice. HT-29 tumor fragments (1 mm^3) were implanted subcutaneously into the right flank of each test mouse, and tumor growth was monitored. On Day 1 of the study, the animals were pair-matched into five groups (Groups 1-5) for evaluation of efficacy and four groups for sampling (Groups 6-9). Groups 1-5 each consisted of ten animals with tumor sizes ranging from 75-126 mm^3 and group mean tumor sizes of 99 mm^3. Groups 6-9 each consisted of twenty animals with tumor sizes ranging from 40-221 mm^3 and group mean tumor sizes of 84 mm^3. Tumor weight was estimated with the assumption that 1 mg is equivalent to 1 mm^3 of tumor volume. Volume was calculated using the formula:
as §3
Tumors were measured twice each week using calipers. Each animal was euthanized when its tumor reached the predetermined endpoint size of 1000 mm^3, or on the final day of the study (Day 62), whichever came first. The time to endpoint (TTE) for each mouse was calculated from the following equation: […]
where b is the intercept and m is the slope of the line obtained by linear regression of a log-transformed tumor growth data set. The data set was comprised of the first observation that exceeded the study endpoint volume and the three consecutive observations that immediately preceded the attainment of the endpoint volume.
Treatment outcome was determined from tumor growth delay (TGD), which is defined as the increase in the median time to endpoint (TTE) in a treatment group compared to the control group:
where: • T=median TTE for a treatment group, • C=median TTE for the control group (Group 1)
Treatment may cause partial regression (PR) or complete regression (CR) of the tumor in an animal. In a PR response, the tumor volume is 50% or less of its Day 1 volume for three consecutive measurements during the course of the study, and equal to or greater than 13.5 mm^3 for one or more of these three measurements. In a CR response, the tumor volume is less than 13.5 mm^3 for three consecutive measurements during the course of the study. An animal with a CR response at the termination of a study is additionally classified as a long-term tumor-free survivor (LTTFS). […]

[7] = addition of up to 3 cycles to carboplatin therapy

Methoxypolyethyleneglycol20000-propionyl-L-Isoleucyl-L-Glutamyl-Glycyl-L-Prolyl-L-Threonyl-L-Leucyl-L-Arginyl-L-Glutaminyl-L-2-Naphthylalanyl-L-Leucyl-L-Alanyl-L-Alanyl-L-Arginyl-Sarcosyl-Ne-(methoxypolyethyleneglycol20000-propionyl-L-Isoleucyl-L-Glutamyl-Glycyl-L-Prolyl-L-Threonyl-L-Leucyl-L-Arginyl-L-Glutaminyl-L-2-Naphthylalanyl-L-Leucyl-L-Alanyl-L-Alanyl-L-Arginyl-Sarcosyl-)-Lysinamide [TPO mimetic peptide compound]
safety and tolerability ([1]; healthy male subjects, single i.v. doses 0.375 to 3 μg/kg): safe and generally well tolerated
antibodies against the TPO mimetic peptide compound ([1]; healthy subjects, post dose samples): not apparent; also recorded: no evidence of antibody formation
effect of administration time relative to chemotherapy ([2]; 1 hour after chemotherapy compared with dosing after 24 or 96 hours): more effective
doses at which the anti-anemic effect was observed ([2]; following carboplatin treatment): ≥ 0.03 mg/kg
chemotherapy-induced reduction in Hb, hematocrit and RBC count ([2]; mouse, in vivo): prevented
fibrinogen-positive microangiopathic lesions in small blood vessels in the brain ([2]; mouse, in vivo): marked reduction
minimum effective dose ([2]; murine models of CIT, single dose, Day 12): 0.1 mg/kg
myeloprotective effect in murine models of CIT ([2]; single dose, Day 12): reducing the severity and duration of CIT in a dose-dependent manner
mean reticulocyte values compared to Group 6 controls ([3]; Group 8, all time points): slightly higher
mean hematocrit (HCT) values compared to untreated mice (Group 6) ([3]; Groups 7-9): similar
mean platelet counts compared to untreated Group 6 controls ([3]; Groups 7-9, regimens as Groups 2-4, Days 10, 13, 21, and 23): higher mean platelet counts at all four time points
platelet count (platelet count [4]): increased platelet count
time at which platelet count returned to baseline (platelet count [4]): 12 days
time at which the platelet count increase was maximal (platelet count [4]): 6 days
mean platelet count (platelet count [5]; healthy male subjects, single i.v. administration): dose-dependently increased; also recorded: dose dependent, nonlinear increase
elevated platelet counts, increase from baseline (platelet count [5]; healthy subjects, 3.0 μg/kg dose): ≥ 3 fold
mean number of CD62P+ platelets (platelet count [5]; healthy subjects, 2 highest doses): appeared to increase
mean megakaryocyte ploidy (platelet count [5]; healthy subjects, doses of 1.5 μg/kg and above): increased compared with placebo
mean numbers of hematopoietic progenitor cells (BFU-E and peripheral CD34+ cells) (platelet count [5]; healthy subjects, highest dose): increased compared with placebo; also recorded: increased mean numbers of hematopoietic progenitor cells
TGD (tumor growth delay) ([6]; Groups 2-4, relative to untreated Group 1, carboplatin 60 mg/kg i.p. Days 1, 2, 12, 13, TPO mimetic peptide compound 0.2 mg/kg i.v. Days 2, 13): 8.1 days
% Tumor Growth Delay ([6]; HT-29 xenografts, athymic nude mice, n=10, carboplatin 60 mg/kg i.p. Days 1, 2, 12, 13, TPO mimetic peptide compound 0.2 mg/kg i.v. Days 2, 13, Groups 2-4, vs untreated Group 1): 33%
Median TTE ([6]; HT-29 xenografts, athymic nude mice, n=10, carboplatin 60 mg/kg i.p. Days 1, 2, 12, 13, TPO mimetic peptide compound 0.2 mg/kg i.v. Days 2, 13, Groups 2-4, endpoint 1000 mm^3): 32.9 days
effect on tumor growth ([6]; TPO mimetic peptide compound administration alone): did not enhance tumor growth
impact on tumor growth delay [6, 7]: no negative impact on tumor growth delay
survival compared with carboplatin treatment alone [6, 7]: small increase in survival; also recorded: small advantage in survival
